Literature values, collected in patent US9095607B2, “Gel for topical application of clove essential oil with broad spectrum anti-inflammatory action and method of preparing same” (priority 2013, dated 2015).

Row | Structure (SMILES) | in vivo up-regulation of kinin B1 receptors (kinin B1 receptors) | LPS-induced neutrophil migration (neutrophil migration) | LPS-induced NF-kB activation (NF-kB)
1 | C/C1=C\CC/C(C)=C/CC(C)(C)/C=C/C1 [Alpha-humulene] | ability to prevent | inhibit | inhibit
2 | C=C1CC/C=C(\C)CC[C@@H]2[C@@H]1CC2(C)C [Beta-caryophyllene] | – | inhibit | inhibit
